Read-outs that look alike come from different tables or passages of the source. Non-standard residues stand in square brackets, D forms with d. Residues, ends and D or L forms follow the SMILES beside them. No end group written: not given here. *: point of attachment. NMeF = CN[C@@H](Cc1ccccc1)C(=O)O; X1 = O=C(Cc1ccc(O)cc1)*
What was measured:
[1] = molecular target: rat spinal cord membrane receptor; assay: [125I]D-Tyr-NPFF radioligand binding, rat spinal cord membranes; conditions: competition of [125I]D-Tyr-NPFF binding; * = differs from NPFF1
Excerpt: The binding profile of rat NPFF1 was compared to that of rat spinal cord membranes. […] (See * Table 2).

rat NPFF1 receptor = rat NPFF1 receptor (Rattus norvegicus, UniProt Q9EP86); assay: [125I]D-Tyr-NPFF radioligand binding, membranes of COS-7 cells transiently expressing cloned rat NPFF1; set-up: expressed in transfected cells; host or cells: COS-7 (transient)
Chain of rat NPFF1 receptor (Q9EP86 whole entry): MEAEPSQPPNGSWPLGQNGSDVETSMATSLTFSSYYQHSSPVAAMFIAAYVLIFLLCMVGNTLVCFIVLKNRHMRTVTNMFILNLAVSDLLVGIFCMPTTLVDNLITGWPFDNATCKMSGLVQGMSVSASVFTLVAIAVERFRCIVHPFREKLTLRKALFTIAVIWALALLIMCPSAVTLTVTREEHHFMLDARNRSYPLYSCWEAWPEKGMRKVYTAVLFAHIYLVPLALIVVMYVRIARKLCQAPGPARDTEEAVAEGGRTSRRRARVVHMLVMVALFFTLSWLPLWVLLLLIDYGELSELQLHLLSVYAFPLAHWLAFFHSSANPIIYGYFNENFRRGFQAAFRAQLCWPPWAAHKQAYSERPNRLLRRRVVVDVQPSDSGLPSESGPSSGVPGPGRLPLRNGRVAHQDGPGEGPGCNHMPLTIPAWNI
Procedure: Transfected cells from culture flasks are scraped into 5 ml of 20 mM Tris-HCl, 5 mM EDTA, pH 7.5, and lysed by sonication. The cell lysates are centrifuged at 1000 rpm for 5 min. at 4° C., and the supernatant is centrifuged at 30,000×g for 20 min. at 4° C. […] Optimal membrane suspension dilutions, defined as the protein concentration required to bind less than 10% of the added radioligand, […], unlabeled compounds, and binding buffer to a final volume of 250 μl. In equilibrium saturation binding assays membrane preparations are incubated in the presence of increasing concentrations of [^3H]-labeled compound. […] Competition assay: 50 pM radioligand, 10-12 points. Binding reaction mixtures are incubated for 2 hr at 25° C., and the reaction stopped by filtration through a double layer of GF filters treated with 0.1% polyethyleneimine, using a cell harvester. Wash buffer: 50 mM Tris-HCl, 0.1% BSA. Radioactivity may be measured by scintillation counting and data are analyzed by a computerized non-linear regression program. Non-specific binding is defined as the amount of radioactivity remaining after incubation of membrane protein in the presence of 1 μM final concentration […]. Protein concentration may be measured by the Bradford method using Bio-Rad Reagent, with bovine serum albumin as a standard.
Cos-7 cells transiently expressing the gene encoding the novel rat NPFF1 receptor were used for pharmacological evaluation.

NPFF1 (SNORF2) = molecular target: T1, NPFF1 (SNORF2) (Rattus norvegicus, UniProt Q9EP86); assay: Voltage-clamp electrophysiology, Xenopus oocytes injected with SNORF2 (NPFF1) and chimeric Gαq/z RNA; type: cell-based; conditions: for inward current response: 1 μM, oocytes with SNORF2 + Gαq/z, holding potential −80 mV; for activation of oocytes injected with SNORF2 synthetic RNA: concentration not given
T1 construct: linearized plasmids or PCR products containing the complete coding region of the genes; expressed in transfected cells; host or cells: Xenopus laevis oocytes injected with synthetic RNA (T7 transcripts)
T1 sequence (Q9EP86 whole entry): as above
Procedure: Oocytes were harvested from Xenopus laevis and injected with mRNA transcripts as previously described (Quick and Lester, 1994; Smith et al., 1997). […] Three to eight hours prior to recording, oocytes were injected with 500 pg Gαq/z mRNA in order to observe coupling to Ca^++ activated Cl^− currents. Dual electrode voltage clamp (Axon Instruments Inc.) was performed using 3 M KCl-filled glass microelectrodes having resistances of 1-2 Mohm. Unless otherwise specified, oocytes were voltage clamped at a holding potential of −80 mV. During recordings, oocytes were bathed in continuously flowing (1-3 ml/min) medium containing 96 mM NaCl, 2 mM KCl, 1.8 mM CaCl2, 1 mM MgCl2, and 5 mM HEPES, pH 7.5 (ND96). Drugs were applied either by local perfusion from a […] glass capillary tube fixed at a distance of 0.5 mm from the oocyte, or by switching from a series of gravity fed perfusion lines.
Heterologous expression of GPCRs in Xenopus oocytes has been widely used to determine the identity of signaling pathways activated by agonist stimulation (Gundersen et al., 1983; Takahashi et al., 1987). Activation of the phospholipase C (PLC) pathway is assayed by applying test compound in ND96 solution to oocytes previously injected with mRNA for the mammalian receptor and observing inward currents at a holding potential of −80 mV. The appearance of currents that reverse at −25 mV and display other properties of the Ca^++-activated Cl^− (chloride) channel is indicative of mammalian receptor-activation of PLC and release of IP3 and intracellular Ca^++.

[2] = competition of [125I]D-Tyr-NPFF binding, COS-7 membranes, read-out: pKi for cloned rat NPFF1 receptor binding in COS-7 cells, MEAN (converted)
[3] = competition of [125I]D-Tyr-NPFF binding, COS-7 membranes

H-KNQFIRF-NH2 [AF-1, H2N-Lys-Asn-Gln-Phe-Ile-Arg-Phe-NH2]
pKi for rat spinal cord membrane receptor binding, MEAN [1]: *7.563 | Ki (rat NPFF1 receptor; [2]): 0.232 µM

NCCc1ccc(O)c(O)c1 [dopamine]
Ki (rat NPFF1 receptor; [2]): ≥ 10 µM

YLFQPQRF-NH2 [Y8Fa]
pKi for rat spinal cord membrane receptor binding, MEAN [1]: *9.189 | inward current response (NPFF1 (SNORF2)): displayed activity

Dynorphin A1-13
pKi for rat spinal cord membrane receptor binding, MEAN [1]: *5.700

PDKDFIVNPSDLVLDNKAALRDYLRQINEYFAIIGRPRF-NH2 (C-terminus assumed) [Neuropeptide F]
pKi for rat spinal cord membrane receptor binding, MEAN [1]: *8.100 | pKi for cloned rat NPFF1 receptor binding in COS-7 cells, MEAN (rat NPFF1 receptor; [3]): 6.11

CSCC[C@H](NC(=O)[C@@H]1CCCN1)C(=O)N[C@@H](CCCNC(=N)N)C(=O)N[C@@H](Cc1ccccc1)C(N)=O [PMRFa] (H-PMRF-NH2; N-terminus assumed)
pKi for rat spinal cord membrane receptor binding, MEAN [1]: 9.37

COc1ccc2c(c1)[nH]c1c(C)nccc12 [harmine]
Ki (rat NPFF1 receptor): ≥ 10 µM

AGEGLSSPYWSLAAPQRF-NH2 [[Y^9]A18Fa]
pKi for rat spinal cord membrane receptor binding, MEAN [1]: *8.502 | inward current response (NPFF1 (SNORF2)): displayed activity

CNCCCN1c2ccccc2CCc2ccccc21 [desipramine]
Ki (rat NPFF1 receptor; [2]): ≥ 10 µM

CC(C)C[C@@H](NC(=O)[C@H](N)Cc1ccc(O)cc1)C(=O)N(C)[C@@H](Cc1ccccc1)C(=O)N[C@@H](CCC(N)=O)C(=O)N1CCC[C@H]1C(=O)N[C@@H](CCC(N)=O)C(=O)N[C@@H](CCCNC(=N)N)C(=O)N[C@@H](Cc1ccccc1)C(N)=O [(2DME)Y8Fa] (H-[dY][dL][NMeF]QPQRF-NH2; N-terminus assumed)
pKi for rat spinal cord membrane receptor binding, MEAN [1]: 9.57 | pKi for cloned rat NPFF1 receptor binding in COS-7 cells, MEAN (rat NPFF1 receptor; [3]): 9.2

C[C@@H]1CN([C@H]2CC[C@](C#N)(c3ccc(F)cc3)CC2)CC[C@]1(C(=O)O)c1ccccc1 [levocabastine]
Ki (rat NPFF1 receptor; [2]): ≥ 10 µM

CCNC(C)Cc1cccc(C(F)(F)F)c1 (stereo not drawn) [fenfluramine]
Ki (rat NPFF1 receptor; [2]): ≥ 10 µM

Cc1nc2sccn2c(=O)c1CCN1CCC(=C(c2ccc(F)cc2)c2ccc(F)cc2)CC1 [ritanserine]
Ki (rat NPFF1 receptor; [2]): ≥ 10 µM

CC(C)C[C@H](NC(=O)[C@H](Cc1ccccc1)NC(=O)Cc1ccc(O)cc1)C(=O)N[C@@H](Cc1ccccc1)C(=O)N[C@@H](CCC(N)=O)C(=O)N1CCC[C@H]1C(=O)N[C@@H](CCC(N)=O)C(=O)N[C@@H](CCCNC(=N)N)C(N)=O [desamino-nor-Y8Ra] (X1-FLFQPQR-NH2)
pKi for rat spinal cord membrane receptor binding, MEAN [1]: 7.51 | pKi for cloned rat NPFF1 receptor binding in COS-7 cells, MEAN (rat NPFF1 receptor; [3]): 7.27

TEPGLEEVGEIEQKQLQ [nocistatin]
pKi for cloned rat NPFF1 receptor binding in COS-7 cells, MEAN (rat NPFF1 receptor; [3]): ≤ 5

N=C(N)NCCC[C@H](N)C(=O)O [L-arginine]
Ki (rat NPFF1 receptor; [2]): ≥ 10 µM

CC(C)C[C@H](NC(=O)[C@H](CCCCN)NC(=O)[C@H](CCCN=C(N)N)NC(=O)[C@H](C)NC(=O)[C@H](CO)NC(=O)[C@H](CCCCN)NC(=O)[C@H](CCCN=C(N)N)NC(=O)[C@H](C)NC(=O)CNC(=O)[C@@H](NC(=O)[C@H](Cc1ccccc1)NC(=O)CNC(=O)CNC(=O)[C@@H](N)Cc1ccccc1)[C@@H](C)O)C(=O)N[C@@H](C)C(=O)N[C@@H](CC(N)=O)C(=O)N[C@@H](CCC(N)=O)C(=O)O [nociceptin]
Ki (rat NPFF1 receptor): ≥ 10 µM

N=C(N)NCCC[C@H](NC(=O)[C@H](Cc1ccccc1)NC(=O)[C@@H](N)Cc1ccccc1)C(=O)N[C@@H](Cc1ccccc1)C(N)=O [FFRF] (H-FFRF-NH2; N-terminus and C-terminus assumed)
pKi for rat spinal cord membrane receptor binding, MEAN [1]: 8.98 | pKi for cloned rat NPFF1 receptor binding in COS-7 cells, MEAN (rat NPFF1 receptor; [3]): 8

orexin B
activation of oocytes injected with SNORF2 synthetic RNA (NPFF1 (SNORF2)): failed to activate

CSCC[C@H](NC(=O)[C@H](Cc1ccc(OS(=O)(=O)O)cc1)NC(=O)[C@@H](N)CC(=O)O)C(=O)NCC(=O)N[C@@H](Cc1c[nH]c2ccccc12)C(=O)N[C@@H](CCSC)C(=O)N[C@@H](CC(=O)O)C(=O)N[C@@H](Cc1ccccc1)C(N)=O [CCK8]
pKi for cloned rat NPFF1 receptor binding in COS-7 cells, MEAN (rat NPFF1 receptor; [3]): ≤ 5

NCCc1c[nH]c2ccc(O)cc12 [5-HT]
activation of oocytes injected with SNORF2 synthetic RNA (NPFF1 (SNORF2)): failed to activate

C[C@@H](O)[C@H](NC(=O)[C@@H](N)Cc1ccccc1)C(=O)N[C@@H](CCCNC(=N)N)C(=O)N[C@@H](Cc1ccccc1)C(N)=O [FTRF] (H-FTRF-NH2; N-terminus and C-terminus assumed)
pKi for rat spinal cord membrane receptor binding, MEAN [1]: 8.16 | pKi for cloned rat NPFF1 receptor binding in COS-7 cells, MEAN (rat NPFF1 receptor; [3]): 7.87

CC(C)C[C@@H](NC(=O)[C@H](N)Cc1ccc(O)cc1)C(=O)N[C@@H](Cc1ccccc1)C(=O)N[C@@H](CCC(N)=O)C(=O)N1CCC[C@H]1C(=O)N[C@@H](CCC(N)=O)C(=O)N[C@@H](CCCNC(=N)N)C(=O)N[C@@H](Cc1ccccc1)C(N)=O [(2D)Y8Fa] (H-[dY][dL]FQPQRF-NH2; N-terminus assumed)
pKi for rat spinal cord membrane receptor binding, MEAN [1]: *9.212 | pKi for cloned rat NPFF1 receptor binding in COS-7 cells, MEAN (rat NPFF1 receptor; [3]): 8.33

N=C(N)NCCC[C@@H](N)C(=O)O [D-arginine]
Ki (rat NPFF1 receptor; [2]): ≥ 10 µM

melanin concentrating hormone
activation of oocytes injected with SNORF2 synthetic RNA (NPFF1 (SNORF2)): failed to activate

CC(C)C[C@@H](NC(=O)[C@H](N)Cc1ccc(O)cc1)C(=O)N[C@H](Cc1ccccc1)C(=O)N[C@@H](CCC(N)=O)C(=O)N1CCC[C@H]1C(=O)N[C@@H](CCC(N)=O)C(=O)N[C@@H](CCCNC(=N)N)C(=O)N[C@@H](Cc1ccccc1)C(N)=O [(3D)Y8Fa] (H-[dY][dL][dF]QPQRF-NH2; N-terminus assumed)
pKi for rat spinal cord membrane receptor binding, MEAN [1]: 9.123

H-PDVDHVFLRF-NH2 [SchistFLRF]
pKi for rat spinal cord membrane receptor binding, MEAN [1]: 6.39

H-KHQYLRF-NH2 [AF-2, H-Lys-His-Gln-Tyr-Leu-Arg-Phe-NH2]
pKi for rat spinal cord membrane receptor binding, MEAN [1]: *7.965 | Ki (rat NPFF1 receptor; [2]): 0.0948 µM

B1: CCK: unrelated neuropeptide (peptide, UniProt P06307 21-115, looked up)
Cholecystokinin: QPVPPADPAGSGLQRAEEAPRRQLRVSQRTDGESRAHLGALLARYIQQARKAPSGRMSIVKNLQNLDPSHRISDRDYMGWMDFGRRSAEEYEYPS
modifications: Cholecystokinin
notes: unrelated neuropeptide
activation of oocytes injected with SNORF2 synthetic RNA (NPFF1 (SNORF2)): failed to activate

Reference: patent US7276339B2 (H. Lundbeck A/S, priority 1998, dated 2007)
